Source: US20230121031A1, “MASKED FLUOROGENIC COMPOUNDS AND METHODS OF USING THE SAME” (Rutgers, The State University of New Jersey, priority 2021, published 2023)

Key:
BL21-DE3 cells = test: Fluorescence imaging of H2S in E. coli expressing aptamer; type: cell-based; settings: upon introduction of H2S (1 mM)
Description: FIGS. 9A-9D depict detection of H2S in E. coli utilizing AEC-MFHBI. FIG. 9A provides a schematic showing the detection of H2S in E. coli by fluorescence of MFHBI upon cleavage from AEC-MFHBI. FIGS. 9B-9D provide fluorescence images of E. coli expressing aptamer plasmid which have been administered MFHBI (FIG. 9B), AEC-MFHBI (FIG. 9C), and AEC-MFHBI in the presence of H2S (FIG. 9D). Dual channel: MFHBI+RNA (470/550 nm) and FM 4-64FX (510/640 nm). Scale bar: 10 μm.
Imaging of hydrogen sulfide (H2S) has been performed in an analogous manner to that which is described for the detection of H2O2. Specifically, BL21-DE3 cells are transformed with plasmid DNA that contains a T7 promoter and RNABabySpinach or a custom triple baby spinach construct, which allows for the expression of three baby spinach RNA aptamers per transcription cycle. These cells are inoculated with isopropyl β-D-1-thiogalactopyranoside (IPTG) to induce RNA transcription. Subsequent immobilization of the cells on glass dish coated with poly-L-lysine (PLL) and incubation with an imaging buffer (IB) containing the imaging agents and/or controls (i.e., MFHBI, FIG. 9B; or AEC-MFHBI, FIGS. 9C-9D), allowed real time fluorescence imaging of SH2 in cellulo.

RNABabySpinach (51-nt) = test: Experimental binding assay (fluorescence) with RNABabySpinach; settings: Fluorophore (2 μM), RNA (1 μM); for fluorescence intensity with RNABabySpinach: HEPES (pH 8, 20 mM), KCl (100 mM), MgCl2 (10 mM)
Description: FIGS. 4A-4E depict the effect of chemical modifications of HBI on its binding interactions with RNA. FIG. 4A is a crystal structure of DFHBI-RNASpinach (PDB: 4TS2) focusing on the key H-bonding interactions of DFHBI within the G-G-A binding pocket of RNASpinach. […] FIG. 4C is a Pymol view of docked Oct-HBI-RNASpinach, showing that these interactions are disrupted. FIG. 4D is a Pymol view of a docked methyl carbonate-modified HBI-RNASpinach, showing that these interactions are disrupted. FIG. 4E depicts normalized RFUs of HBI and HBI+RNABabySpinach (gray bars) vs. Oct-HBI and Oct-HBI+RNABabySpinach (blue bars). Fluorophore (2 μM), RNA (1 μM), HEPES (pH 8, 20 mM), KCl (100 mM), and MgCl2 (10 mM).
Ligand docking is a useful tool to screen virtual library of molecules to predict binding affinity and conformation of a ligand within a binding pocket. To gain a theoretical insight into the effect of chemical modifications of HBI on its binding interactions with RNA, a robust docking method named Auto-Dock Vina was used (FIGS. 4A-4D). First, the validity of this method was tested by comparing the proposed HBI-RNASpinach docking (FIG. 4B) with the X-ray crystal structure of the native ligand-RNASpinach [FIG. 4A; the co-crystallized ligand in the reported study is 3,5-difluoro-HBI (DFHBI)]. To attain the initial HBI structure for docking, optimizations were performed in gas phase via density functional theory calculations using B3LYP, 6-31G basis set in Gaussian16 software. […] Next, the phenolic oxygen of HBI was replaced with alkyl carbonate groups.

[1] = system: E. coli competent cells (e.g., BL21-DE3); test: Fluorescence imaging of H2O2 in E. coli expressing aptamer; type: cell-based; settings: for fluorescence in E. coli expressing aptamer: imaging buffer with H2O2 (100 μM)
Description: FIGS. 8A-8D depict detection of H2O2 in E. coli utilizing PBAB-MFHBI. FIG. 8A provides a schematic showing the detection of H2O2 in E. coli by fluorescence of MFHBI upon cleavage from PBAB-MFHBI. FIGS. 8B-8D provide fluorescence images of E. coli expressing aptamer plasmid which have been administered MFHBI (FIG. 8B), PBA-MFHBI (FIG. 8C), and PBA-MFHBI in the presence of H2O2 (FIG. 8D). Dual channel: MFHBI+RNA (470/550 nm) and FM 4-64FX (510/640 nm). Scale bar: 10 μm.
For histochemical detection of oxidative stress in living cells, the focus is first on E. coli competent cells (e.g., BL21-DE3) (FIGS. 8A-8D). For the imaging of H2O2, BL21-DE3 cells are transformed with plasmid DNA that contains a T7 promoter and RNABabySpinach or a custom triple baby spinach construct, which allows for the expression of three baby spinach RNA aptamers per transcription cycle. These cells are inoculated with isopropyl β-D-1-thiogalactopyranoside (IPTG) to induce RNA transcription. […] The results can guide additional studies with more complex and biologically relevant cell lines, in particular, any primary or established mammalian cells (e.g., HEK293, HeLa, and HUVEC, inter alia). Detection of endogenous H2O2 generation can also be studied by using molecular stimulants known to trigger mitochondrial ROS production, such as Phorbol 12-myristate 13-acetate (PMA).

RNABabySpinach = test: Fluorescence of H2O2-treated aptamer solutions; type: biochemical; settings: for rise of fluorescence intensity of ligand+RNABabySpinach+H2O2: H2O2 100 μM
Description: FIGS. 7A-7C depict H2O2 treatment of the aptamer systems. HBI and PBE-HBI (50 μM), RNA (1 μM RNABabySpinach), HEPES (pH 8, 50 mM), KCl (100 mM), MgCl2 (10 mM), H2O2 (100 μM). FIG. 7A depict the time-dependent change in fluorescence intensity upon H2O2 addition. FIG. 7B depicts normalized RFUs at 0, 5, and 60 min. FIG. 7C depicts RNABabySpinach stability against H2O2. TBE-urea PAGE lanes: 1. Native RNA; 2. [HBI+RNA]; 3. [HBI+RNA+H2O2]; 4. [PBE-HBI+RNA]; 5. [PBE-HBI+RNA+H2O2]. For imaging, the gel was stained with SYBR gold.
Next, the change in fluorescence for H2O2-treated aptamer solutions that contain HBI (positive control) and PBE-HBI (FIGS. 7A and 7B) was monitored. The RFU of PBE-HBI+RNABabySpinach was lower than that of HBI+RNABabySpinach by 14-fold at 0 min (no H2O2 present), validating that masking the phenolic oxygen of HBI inhibits RNA binding. Upon addition of H2O2 (100 μM), RFU of PBE-HBI+RNABabySpinach reached up to 92% of RFU of the control in 60 min. […] Upon H2O2 addition, the solution pH increased from 8.0 to 8.4 while ˜10% growth in fluorescence intensity was measured for the HBI-containing samples. This change is attributed to the pH-dependent increase in the phenolate form of HBI (see FIG. 5), which is known to have a higher extinction coefficient than its phenol form. […] To investigate the backbone stability of RNABabySpinach under these oxidative conditions, PAGE analyses of RNABabySpinach solutions containing HBI (FIG. 7C, lanes 2 and 3) and PBE-HBI (FIG. 7C, lanes 4 and 5) were carried out.
Remarkably, the kinetics of H2O2 detection, which involves conversion of PBE-HBI to HBI, followed by HBI-aptamer binding, is fast. The incubation time to achieve 1/2 RFUmax through this process is 6.8 (±0.5) min. Reliable detection of H2O2 is feasible in ˜1 min as the fluorescence intensity doubles. These findings are encouraging and serve as a standard for comparing the detection kinetics for other probes. […] In certain embodiments, reliable detection of elevated ALP may require longer incubations with the respective ABA system (FIG. 3G), as ALP has a relatively small margin of variation. The rates of biomarker detection can be modulated by substituting the HBI carbon framework of the probes (FIGS. 3A-3G) with electron donating (—OMe, —NMe2) or withdrawing (—F, —CF3) groups.

[2] = free (unbound) ligand; cited from earlier work
[3] = not told; cited from earlier work

For `CC1=N/C(=C\c2ccc(OC(=O)OCCN=[N+]=[N-])c(F)c2)C(=O)N1C` [AEC-MFHBI], the “fluorescence in E. coli expressing aptamer” value (BL21-DE3 cells) was “rapid increase in fluorescence is observed within one hour”.

For `CCCCCCCCOC(=O)Oc1ccc(/C=C2\N=C(C)N(C)C2=O)cc1` [Oct-HBI], the “fluorescence intensity with RNABabySpinach” value (RNABabySpinach (51-nt)) was 21 RFU and the “decrease in fluorescence intensity compared to HBI-RNABabySpinach” value (RNABabySpinach (51-nt); HEPES pH 8) was ~40 times.

For `CC1=N/C(=C\c2ccc(OCc3ccc(B4OC(C)(C)C(C)(C)O4)cc3)cc2)C(=O)N1C` [PBE-HBI], the “fluorescence in E. coli expressing aptamer” value [1] was “rapid increase in fluorescence within one hour”, the “RFU lower than that of HBI+RNABabySpinach” value (RNABabySpinach; 0 min (no H2O2 present), 50 μM ligand, 1 μM RNA, HEPES pH 8) was 14 fold and the “RFU as % of RFU of the control (HBI+RNABabySpinach)” value (RNABabySpinach; H2O2 (100 μM), in 60 min) was “up to 92%”. The “time for reliable detection of H2O2 (fluorescence intensity doubles)” value (RNABabySpinach; H2O2 detection) was ~1 min, the “incubation time to achieve 1/2 RFUmax” value (RNABabySpinach; H2O2 detection: conversion to HBI followed by HBI-aptamer binding) was 6.8 (±0.5) min and the “rise of fluorescence intensity of ligand+RNABabySpinach+H2O2” value (RNABabySpinach; after 60 min) was ~8 fold. For the same compound, the “rise of fluorescence intensity of ligand+RNABabySpinach+H2O2” value (RNABabySpinach; at 5 min) was ~4 fold.

In the case of “4-hydroxy-benzylidene imidazolinone [HBI, reference compound]”, the fluorescence quantum yield Φf [2] is listed as ~0.0001, the cell permeability [3] is listed as “cell permeable” and the “fluorescence intensity with RNABabySpinach” value (RNABabySpinach (51-nt)) is listed as 846 RFU. The “growth in fluorescence intensity upon H2O2 addition” value (RNABabySpinach; H2O2 addition, solution pH increased from 8.0 to 8.4) was ~10%.

In the case of `CC1=N/C(=C\c2ccc(OCc3ccc(B(O)O)cc3)c(F)c2)C(=O)N1C` [PBAB-MFHBI], the “fluorescence in E. coli expressing aptamer, control sample” value ([1]; exogenous H2O2 absent (FIG. 8C)) is reported as “very small increase in fluorescence” and the “fluorescence in E. coli expressing aptamer” value [1] is reported as “rapid increase in fluorescence within one hour”.
